# From PMC3814362 (Nucleic Acids Research, 2013)
# What was measured:
# HflX-ND1 = target: T1, HflX-ND1 (Escherichia coli, UniProt P25519); test: mant fluorescence emission; type: binding; conditions: labelled compound; 5 µM protein, 1 µM mant-ATP, pH 8.0, 5 mM MgCl2
# T1 sequence (P25519 1-120): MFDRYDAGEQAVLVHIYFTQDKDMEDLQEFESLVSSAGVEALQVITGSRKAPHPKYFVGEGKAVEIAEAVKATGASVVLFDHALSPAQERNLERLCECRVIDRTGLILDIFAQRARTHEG
# [1] = target: T2, HflX-FL; HflX-WT (EcHflX) (Escherichia coli, UniProt P25519); test: mant fluorescence emission; type: binding; conditions: labelled compound; 5 µM protein, 1 µM mant-ATP, pH 8.0, 5 mM MgCl2
# T2 sequence (P25519 1-426): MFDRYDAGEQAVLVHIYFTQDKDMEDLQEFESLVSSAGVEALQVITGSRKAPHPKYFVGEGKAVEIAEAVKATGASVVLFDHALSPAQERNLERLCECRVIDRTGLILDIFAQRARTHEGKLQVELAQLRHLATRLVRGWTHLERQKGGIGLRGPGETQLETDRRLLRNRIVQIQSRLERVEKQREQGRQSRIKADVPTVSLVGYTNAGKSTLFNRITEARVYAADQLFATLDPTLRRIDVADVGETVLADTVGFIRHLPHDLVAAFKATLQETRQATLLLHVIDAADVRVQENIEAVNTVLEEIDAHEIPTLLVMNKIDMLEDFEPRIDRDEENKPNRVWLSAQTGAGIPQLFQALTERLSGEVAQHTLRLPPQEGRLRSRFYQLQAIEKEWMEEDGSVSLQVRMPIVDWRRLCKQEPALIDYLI
smiles,measurement,setting,value
CNc1ccccc1C(=O)O[C@H]1[C@@H](O)[C@H](n2cnc3c(N)ncnc32)O[C@@H]1COP(=O)(O)OP(=O)(O)OP(=O)(O)O [mant-ATP],mant fluorescence emission (ex 355 nm),HflX-ND1,"HflX-ND1, like the full-length protein, binds mant-ATP"
same,mant fluorescence emission (ex 355 nm),[1],"HflX-ND1, like the full-length protein, binds mant-ATP"
